Assay results reported in patent US20250109140A1, “5-[5-(PIPERIDIN-4-YL)THIENO[3,2-C]PYRAZOL-2-YL]INDAZOLE DERIVATIVES AND RELATED COMPOUNDS AS MODULATORS FOR SPLICING NUCLEIC ACIDS AND FOR THE TREATMENT OF PROLIFERATIVE DISEASES” (REMIX THERAPUTICS INC., priority 2022, published 2025).
Read-outs that look alike come from different tables or passages of the source.

Columns and labels:
MYB mRNA = test: Splicing RT-qPCR assay, MYB canonical (CJ) and alternative (AJ) junction mRNA; format: cell-based; settings: Homo sapiens; for EC50: AC50 = 50% response in AJ mRNA increase
Procedure, shortened: (§1)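 Readout is RT-qPCR of CJ and AJ mRNA in lysates from A673 or K562 cells given an 11-point titration (top dose 10 uM final, DMSO at most 0.25%) for 24 hours. Data were normalized to GAPDH, GUSB or PPIA, then to DMSO.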

Target C mRNA = test: Splicing RT-qPCR gene panel, Target C canonical junction (CJ) mRNA; format: cell-based; settings: Homo sapiens; Table 8; larger gene panel, decrease in CJ mRNA levels
Procedure, shortened: as §1

HiBiT-tagged MYB protein = test: HiBiT protein abundance assay, MYB (K562 HiBiT knock-in cells); format: cell-based, human; settings: 24 hours treatment
Procedure, shortened: (§2)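 Luminescence from the Nano-Glo HiBiT lytic reagent measured tagged protein remaining in knock-in K562 cells after 24 h compound exposure (top dose 10 µM final, 3-fold, 10 points). Responses normalized between parental K562 and DMSO-treated lines were fit by four-parameter logistic to interpolate the 50% concentration.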

Target C = test: HiBiT protein abundance assay, Target C (K562 HiBiT knock-in cells); format: cell-based, human; settings: 24 hours treatment
Procedure, shortened: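 The readout was Nano-Glo HiBiT lytic luminescence after 24 h compound exposure at 37 °C, in 10000 K562 knock-in cells/well. Compounds ran as 10-point, 3-fold series, top final […], ≤0.25% DMSO. Responses were scaled between parental K562 and DMSO-treated controls, and IC50 was interpolated at 50% from four-parameter logistic curves.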

HiBiT-tagged HTT protein = test: HiBiT protein abundance assay, HTT (K562 HiBiT knock-in cells); format: cell-based, human; settings: 24 hours treatment
Procedure, shortened: as §2

SMN2 mRNA = test: Splicing RT-qPCR gene panel, SMN2 canonical junction (CJ) mRNA; format: cell-based; settings: Homo sapiens; Table 8; larger gene panel, decrease in CJ mRNA levels
Procedure, shortened: as §1

HTT mRNA = test: Splicing RT-qPCR assay, HTT canonical (CJ) and alternative (AJ) junction mRNA; format: cell-based; settings: Homo sapiens; for EC50: AC50 = 50% response in AJ mRNA increase
Procedure, shortened: as §1

[1] = system: K562 (human chronic myelogenous leukemia) cells; test: Cell viability, Cell Titer Glo 2.0 assay, K562 cells; format: cell-based; settings: 72 hours
Procedure, shortened: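 Luminescent Cell Titer Glo 2.0 readout after 72 h exposure (37° C, 5% CO2), medium-only wells as blank. Cells plated 500/well in IMDM with 10% FBS; test compounds diluted from DMSO series 1:100 into medium, 0.1% DMSO final.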

[2] = Table 7, RT-qPCR, A673 or K562 cells, 24 hours treatment
[3] = Table 7, IC50 = 50% response in CJ mRNA decrease, RT-qPCR, A673 or K562 cells, 24 hours treatment, read-out: MYB CJ
[4] = Table 8, larger gene panel, decrease in CJ mRNA levels, read-out: MYB CJ IC50
[5] = Table 7, IC50 = 50% response in CJ mRNA decrease, RT-qPCR, A673 or K562 cells, 24 hours treatment, read-out: HTT CJ
[6] = Table 8, larger gene panel, decrease in CJ mRNA levels, read-out: HTT CJ IC50

| SMILES | EC50 (MYB mRNA; [2]) | IC50 (MYB mRNA; [3]) | IC50 (MYB mRNA; [4]) | IC50 (Target C mRNA) | IC50 (HiBiT-tagged MYB protein) | IC50 (Target C) | IC50 (HiBiT-tagged HTT protein) | IC50 (SMN2 mRNA) | EC50 (HTT mRNA; [2]) | IC50 (HTT mRNA; [5]) | IC50 (HTT mRNA; [6]) | IC50 [1] |
| --- | --- | --- | --- | --- | --- | --- | --- | --- | --- | --- | --- | --- |
| Cc1cn2cc(-c3cc4cn(C5CCNCC5)nc4s3)cc(C)c2n1 [Compound 216] | 0.1 to 1 µM | 0.1 to 1 µM | 0.1 to 1 µM | 0.1 to 1 µM | 0.1 to 1 µM | < 0.1 µM | < 0.1 µM | < 0.1 µM | < 0.1 µM | < 0.1 µM | < 0.1 µM | 0.1 to 1 µM |
| COc1c(-c2cc3cn(C4CCNCC4)nc3s2)cc2cn(C)nc2c1F [Compound 218] | 0.1 to 1 µM | 0.1 to 1 µM | 0.1 to 1 µM | 0.1 to 1 µM | 0.1 to 1 µM | 0.1 to 1 µM | < 0.1 µM | < 0.1 µM | 0.1 to 1 µM | < 0.1 µM | 0.1 to 1 µM | 0.1 to 1 µM |
| COc1c(-c2cc3cn(C4CCNCC4)nc3s2)nn2cc(C)nc(C)c12 [Compound 219, 4-(5-{3-methoxy-4,6-dimethylpyrazolo[1,5-a]pyrazin-2-yl}thieno[2,3-c]pyrazol-2-yl) piperidine] | > 10 µM | > 10 µM | > 10 µM | > 10 µM | > 10 µM | > 10 µM | > 10 µM | 1 to 10 µM | > 10 µM | > 10 µM | > 10 µM | 1 to 10 µM |
| Cn1cc2cc(-n3cc4cc(C5CCNCC5)sc4n3)c(O)cc2n1 [Compound 220] | 1 to 10 µM | 1 to 10 µM | 1 to 10 µM | 1 to 10 µM | 1 to 10 µM | 1 to 10 µM | 1 to 10 µM | 1 to 10 µM | 1 to 10 µM | 1 to 10 µM | 1 to 10 µM | 1 to 10 µM |
| Cc1c(O)c(-c2cc3cn(C4CCNCC4)nc3s2)cc2cn(C)nc12 [Compound 221] | > 10 µM | > 10 µM | > 10 µM | > 10 µM | 0.1 to 1 µM | 0.1 to 1 µM | 0.1 to 1 µM | > 10 µM | > 10 µM | > 10 µM | > 10 µM | 1 to 10 µM |
| Cc1cn2nc(-c3cc4cn(C5CCNCC5)nc4s3)cc2c(C)n1 [Compound 222] | 1 to 10 µM | 1 to 10 µM | 1 to 10 µM | 1 to 10 µM | 1 to 10 µM | 1 to 10 µM | 0.1 to 1 µM | < 0.1 µM | 1 to 10 µM | 1 to 10 µM | 1 to 10 µM | 1 to 10 µM |
| Cc1cn2cc(-c3cc4cn(C5CCNCC5)nc4s3)ncc2n1 [Compound 223] | 1 to 10 µM | 1 to 10 µM | 1 to 10 µM | 1 to 10 µM | 1 to 10 µM | 1 to 10 µM | 1 to 10 µM | 0.1 to 1 µM | 1 to 10 µM | 1 to 10 µM | 1 to 10 µM | 1 to 10 µM |
| COc1c(-c2cc3cn(C4CCNCC4)nc3s2)cc(F)c2nn(C)cc12 [Compound 224] | > 10 µM | > 10 µM | > 10 µM | > 10 µM | > 10 µM | > 10 µM | > 10 µM | > 10 µM | > 10 µM | > 10 µM | > 10 µM | > 10 µM |
| Cc1cc(-c2cc3cn(C4CCNCC4)nc3s2)cc2cn(C)nc12 [Compound 225] | 0.1 to 1 µM | 0.1 to 1 µM | 0.1 to 1 µM | 0.1 to 1 µM | 0.1 to 1 µM | < 0.1 µM | < 0.1 µM | < 0.1 µM | < 0.1 µM | < 0.1 µM | < 0.1 µM | 0.1 to 1 µM |
| Cc1cn2cc(-c3cc4cn(C5CCNCC5)nc4s3)cc(Cl)c2n1 [Compound 226] | 0.1 to 1 µM | 0.1 to 1 µM | 0.1 to 1 µM | 0.1 to 1 µM | 0.1 to 1 µM | < 0.1 µM | < 0.1 µM | < 0.1 µM | < 0.1 µM | < 0.1 µM | < 0.1 µM | 0.1 to 1 µM |
| Cc1cn2cc(-n3cc4cc(C5CCNCC5)sc4n3)nc2c(C)n1 [Compound 227] | 1 to 10 µM | 1 to 10 µM | 1 to 10 µM | 1 to 10 µM | 1 to 10 µM | 1 to 10 µM | 0.1 to 1 µM | 0.1 to 1 µM | 1 to 10 µM | 0.1 to 1 µM | 0.1 to 1 µM | 1 to 10 µM |
| Cc1cn2cc(-c3cc4cn(C5CCNCC5)nc4s3)nc(C)c2n1 [Compound 228] | 1 to 10 µM | 1 to 10 µM | 1 to 10 µM | 1 to 10 µM | 1 to 10 µM | 1 to 10 µM | 0.1 to 1 µM | 0.1 to 1 µM | 0.1 to 1 µM | 0.1 to 1 µM | 0.1 to 1 µM | 1 to 10 µM |
| Cc1cn2cc(-c3cc4cn(C5CCNCC5)nc4s3)cc(F)c2n1 [Compound 229] | 0.1 to 1 µM | 0.1 to 1 µM | 0.1 to 1 µM | 0.1 to 1 µM | 0.1 to 1 µM | < 0.1 µM | < 0.1 µM | < 0.1 µM | < 0.1 µM | < 0.1 µM | < 0.1 µM | 0.1 to 1 µM |
